The text below walks through data of patent US20090214454A1, “METHOD FOR SKIN WHITENING USING (2Z, 8Z) - MATRICARIA ACID METHYL ESTER” (INHA-INDUSTRY PARTNERSHIP INSTITUTE, priority 2008, published 2009).

In data set [1] the test system is melan-A cells. The experiment in a line: Melanin generation inhibition by measuring OD405 in melan-A melanocytes. The format is cell-based. The settings on record: for Melanin generation rate (%): culture for three days, vs non-treated group = 100. The method, then: Melan-A melanocytes were provided by AmorePacific Co., Korea. Melan-A is the cell line producing melanin, which has been usually used for the examination of a whitening agent. For cell culture, RPMI1640 medium supplemented with 10% FBS, 1% penicillin/streptomycin, and 200 nM TPA was prepared and sterilized. The cells were cultured in a 37° C., 10% CO2 incubator. When the melan-A cells were grown to fill 90% of 100 mm Petri-dish, the cells were sub-cultured.
The cells were recovered by using trypsine-EDTA. 1N NaOH containing 10% DMSO (dimethylsulfoxide) was added to the recovered cells, followed by reaction at 80° C. for 1 hour to let melanin dissolved fully. Then, OD405 was measured using ELISA reader (VERSAmax, Molecular device, USA). Melanin generation was quantified by the following mathematical formula 1 (Table 1, FIGS. 4 and 5).
Melanin generation rate (%)=OD of treated group/OD of non-treated group×100 [Mathematical Formula 1]

In data set [2] the test system is melan-A cells. The experiment in a line: Cytotoxicity test (MTT, OD540) in Melan-A cells. The class given is cell-based. The note with it: for Cell survival rate (%): Melan-A cells, MTT, three days, vs non-treated group = 100. The method, then:
Upon completion of the culture, the medium was eliminated and 100 μl of MTT (3-(4,5-dimethythiazol-2-yl)-2,5-diphenyltetrazoliu,bromide) solution was added to each well of the plate, followed by reaction at 37° C. for 4 hours. Upon completion of the reaction, the solution was eliminated and 100 μl of DMSO was added to each well of the plate to lyse the stained cells. Then, OD540 was measured using ELISA reader. Cell survival rate was calculated by the following mathematical formula 2 (Table 2, FIGS. 4 and 5).
Cell survival rate (%)=(OD of treated group/OD of non-treated group)×100 [Mathematical Formula 2]

SMILES strings stand for the structures.

Regarding `NC(=S)Nc1ccccc1` [Phenylthiourea, phenylthiourea, reference compound], the “Melanin generation rate (%)” value with melan-A cells [1] (50 uM) amounted to 36.19%. In the data set with melan-A cells [2] (50 uM), the “Cell survival rate (%)” value came out at 100.19%.
For the molecule `C/C=C\C#CC#C/C=C\C(=O)OC` [(2Z,8Z)-matricaria acid methyl ester], the figures for the “Melanin generation rate (%)” value with melan-A cells [1] (4.5 uM) and with melan-A cells [1] (9 uM) were 36.37% and 26.92%, respectively. The “Melanin generation (result in words)” value in the data set with melan-A cells [1] (compared with non-treated negative control (and positive control PTU for the compound)) is on record as “inhibited melanin generation at a lower concentration”. Also, the figures for the “Cell survival rate (%)” value in the data set with melan-A cells [2] (4.5 uM) and with melan-A cells [2] (9 uM) were 106.66% and 99.44%, respectively. Besides, the “Cytotoxicity (result in words)” value with melan-A cells [2] (at a low concentration) is “no cytotoxicity was observed”.
